The record followed here is patent publication US9512087B2, “Hybrid molecules containing pharmacophores of fluconazole as antifungal agents and their preparation” (Council for Scientific & Industrial Research, priority 2011, dated 2016).

Experiment in all cases: Antifungal MIC, broth dilution
Assay [1] relates to C. glabrata ATCC 90030. It counts as cell-based. To be noted: end point 48 hours; for MIC50: Nakaseomyces glabratus, ATCC90030, RPMI 1640 with MOPS, read-out: Cg01 MIC50; for Cg01 MIC50: RPMI 1640 with MOPS.
In assay [2] the test system is C. tropicalis ATCC 750. It is filed as cell-based. To be noted: end point 48 hours; for MIC50: Candida tropicalis, ATCC750, RPMI 1640 with MOPS, read-out: Ct01 MIC50; for Ct01 MIC50: RPMI 1640 with MOPS.
The subject of assay [3] is C. albicans ATCC 24433. It counts as cell-based, Candida albicans. To be noted: end point 48 hours; for MIC80 / MIC50: Candida albicans, ATCC24433, RPMI 1640 with MOPS; for MIC80: read-out: Ca01 A: MIC80; for MIC50: read-out: Ca01 B: MIC50; for Ca01 A: MIC80 / Ca01 B: MIC50: RPMI 1640 with MOPS. The protocol: (§1) The compounds of Formula 1 were tested for antifungal activity against Candida albicans, Aspergillus niger and Fusarium proliferatum. In vitro evaluation of antifungal activity was performed by determining the minimum inhibitory concentration (MIC) following standard methods (CLSI: Reference method for broth dilution antifungal susceptibility testing of yeasts; Approved standard, second edition M27-A2, 2002; CLSI: Reference method for broth dilution antifungal susceptibility testing of filamentous fungi; Approved standard M38-A, 2002). Anti-fungal susceptibility testing of these anti-fungal compounds was done by broth dilution method using RPMI 1640 medium with MOPS buffer. Known anti-fungal agents like fluconazole and amphotericin-B were used as positive control. End points were determined after 48 hours visually and by using spectrophotometer wherever necessary. Different dilutions were tried and various sets of experiments performed. The activity parameters are enumerated in Table 5.

Assay [4] relates to A. niger ATCC 16404. It counts as cell-based, Aspergillus niger. As to conditions: end point 48 hours; for MIC50: Aspergillus niger, ATCC16404, RPMI 1640 with MOPS, read-out: An01 MIC50; for An01 MIC50: RPMI 1640 with MOPS. The protocol:
as §1

Assay [5] deals with A. fumigatus ATCC 46645. It counts as cell-based. To be noted: end point 48 hours; for MIC50: Aspergillus fumigatus, ATCC46645, RPMI 1640 with MOPS, read-out: Afm01 MIC50; for Afm01 MIC50: RPMI 1640 with MOPS.
Assay [6] deals with C. krusei ATCC 6258. It counts as cell-based. To be noted: end point 48 hours; for MIC50: Pichia kudriavzevii, ATCC6258, RPMI 1640 with MOPS, read-out: Ck01 MIC50; for Ck01 MIC50: RPMI 1640 with MOPS.
The test system of assay [7] is F. proliferatum ATCC 10052. It is filed as cell-based, Fusarium proliferatum. As to conditions: end point 48 hours; for MIC50: Fusarium proliferatum, ATCC10052, RPMI 1640 with MOPS, read-out: Fp01 MIC50; for Fp01 MIC50: RPMI 1640 with MOPS. The protocol: as §1
Assay [8] concerns C. neoformans ATCC 34664. It counts as cell-based. To be noted: end point 48 hours; for MIC50: Cryptococcus neoformans, ATCC34664, RPMI 1640 with MOPS, read-out: Cn01 MIC50; for Cn01 MIC50: RPMI 1640 with MOPS.

The MIC50 is the lowest concentration that inhibits either 50% of growth or 50% of the strains tested, depending on the study. Broadly, the MIC80 is an inhibitory concentration at the 80% level, which refers to growth in some studies and to a panel of isolates in others.

Values after ≈ are worked out from the molar mass of the structure shown. A value given as a limit tells only on which side of the number the result lay.

With `COc1ccc(C(=O)/C=C/c2ccc(OCC(O)(Cn3cncn3)c3ccc(F)cc3F)c(OC)c2)cc1` (stereo not drawn) [Compound 1A-23], the MIC50 was 1 µg/mL (≈ 1.92 µM) in assay [1]; 0.5 µg/mL (≈ 0.959 µM) in assay [2]; 0.5 µg/mL (≈ 0.959 µM) in assay [3]; more than 4 µg/mL in assay [4]; more than 4 µg/mL in assay [5]; 2 µg/mL (≈ 3.83 µM) in assay [6]. In addition, the MIC50 in assay [7] is more than 4 µg/mL; in assay [8] it was 1 µg/mL (≈ 1.92 µM). The MIC80 in assay [3] was 0.5 µg/mL (≈ 0.959 µM).

As for `CCCCCCCCOc1ccc(C(=O)/C=C/c2ccc(OCC(O)(Cn3cncn3)c3ccc(F)cc3F)cc2)cc1` (stereo not drawn) [Compound 1A-24], the “Cg01 MIC50” value in assay [1] turned out to be 0.12 µg/mL. Also, in assay [2], the “Ct01 MIC50” value is more than 4 µg/mL. Also, in assay [3], the “Ca01 A: MIC80” value turned out to be 8 µg/mL and the “Ca01 B: MIC50” value was determined as 4 µg/mL. In addition, the “An01 MIC50” value in assay [4] was more than 4 µg/mL. In addition, the “Afm01 MIC50” value in assay [5] was more than 4 µg/mL. Moreover, the “Ck01 MIC50” value in assay [6] is more than 4 µg/mL. In assay [7], the “Fp01 MIC50” value was more than 4 µg/mL. In addition, in assay [8], the “Cn01 MIC50” value is more than 4 µg/mL.

Take `CC(=O)/C=C/c1ccc(OCC(O)(Cn2cncn2)c2ccc(F)cc2F)cc1` (stereo not drawn) [Compound 1A-25]: the MIC50 is 0.12 µg/mL (≈ 0.3 µM) in assay [1]; 2 µg/mL (≈ 5.01 µM) in assay [2]; 0.12 µg/mL (≈ 0.3 µM) in assay [3]; 8 µg/mL (≈ 20 µM) in assay [4]; 8 µg/mL (≈ 20 µM) in assay [5]; 8 µg/mL (≈ 20 µM) in assay [6]. In addition, the MIC50 in assay [7] is more than 128 µg/mL; in assay [8] it was 4 µg/mL (≈ 10 µM). Besides, the MIC80 in assay [3] turned out to be 0.25 µg/mL (≈ 0.626 µM).

As to `CCCCCC(=O)/C=C/c1ccc(OCC(O)(Cn2cncn2)c2ccc(F)cc2F)cc1` (stereo not drawn) [Compound 1A-26], the MIC50 is 0.06 µg/mL (≈ 0.132 µM) in assay [1]; 2 µg/mL (≈ 4.39 µM) in assay [2]; 0.12 µg/mL (≈ 0.263 µM) in assay [3]; more than 4 µg/mL in assay [4]; more than 4 µg/mL in assay [5]; 1 µg/mL (≈ 2.2 µM) in assay [6]. The MIC50 was more than 4 µg/mL in assay [7] and 0.5 µg/mL (≈ 1.1 µM) in assay [8]. In addition, the MIC80 in assay [3] amounted to 0.25 µg/mL (≈ 0.549 µM).

For the compound `CCCCCCCCCCCCCCC(=O)/C=C/c1ccc(OCC(O)(Cn2cncn2)c2ccc(F)cc2F)cc1` (stereo not drawn) [Compound 1A-27], the “Cg01 MIC50” value in assay [1] was more than 1 µg/mL. Moreover, the “Ct01 MIC50” value in assay [2] is more than 1 µg/mL. For the same compound, in assay [3], the “Ca01 A: MIC80” value was more than 1 µg/mL and the “Ca01 B: MIC50” value is more than 1 µg/mL. Moreover, the “An01 MIC50” value in assay [4] was more than 1 µg/mL. In addition, the “Afm01 MIC50” value in assay [5] was more than 1 µg/mL. Moreover, the “Ck01 MIC50” value in assay [6] was more than 1 µg/mL. The “Fp01 MIC50” value in assay [7] is more than 1 µg/mL. In addition, the “Cn01 MIC50” value in assay [8] is more than 1 µg/mL.

As to `O=C(/C=C/c1ccc(OCC(O)(Cn2cncn2)c2ccc(F)cc2F)cc1)C1CC1` (stereo not drawn) [Compound 1A-28], the “Cg01 MIC50” value in assay [1] was determined as 0.03 µg/mL. Further, the “Ct01 MIC50” value in assay [2] worked out at 0.25 µg/mL. Moreover, in assay [3], the “Ca01 A: MIC80” value amounted to 0.06 µg/mL and the “Ca01 B: MIC50” value was 0.015 µg/mL. Besides, in assay [4], the “An01 MIC50” value was determined as 8 µg/mL. In addition, the “Afm01 MIC50” value in assay [5] is 16 µg/mL. Also, the “Ck01 MIC50” value in assay [6] turned out to be 1 µg/mL. In addition, the “Fp01 MIC50” value in assay [7] was more than 16 µg/mL. Moreover, in assay [8], the “Cn01 MIC50” value is 2 µg/mL.

On to `COc1cc(/C=C/C=O)ccc1OCC(O)(Cn1cncn1)c1ccc(F)cc1F` (stereo not drawn) [Compound 1A-29], for which the MIC50 is 1 µg/mL (≈ 2.41 µM) in assay [1]; 8 µg/mL (≈ 19.3 µM) in assay [2]; 0.25 µg/mL (≈ 0.602 µM) in assay [3]; more than 64 µg/mL in assay [4]; more than 64 µg/mL in assay [5]; 32 µg/mL (≈ 77 µM) in assay [6]. Besides, the figures for the MIC50 in assay [7] and in assay [8] were more than 64 µg/mL and 16 µg/mL (≈ 38.5 µM), respectively. Also, the MIC80 in assay [3] was determined as 0.5 µg/mL (≈ 1.2 µM).

Regarding `O=C(c1ccc(OCC(O)(Cn2cncn2)c2ccc(F)cc2F)cc1)C(Br)C(Br)c1ccc(Cl)cc1Cl` (stereo not drawn) [Compound 1B-1, 2,3-Dibromo-3-(2,4-dichlorophenyl)-1-(4-(2-(2,4-difluorophenyl)-2-hydroxy-3-(1H-1,2,4-triazol-1-yl)propoxy)phenyl)propan-1-one], the MIC50 is 0.5 µg/mL (≈ 0.724 µM) in assay [1]; 1 µg/mL (≈ 1.45 µM) in assay [2]; 0.25 µg/mL (≈ 0.362 µM) in assay [3]; more than 8 µg/mL in assay [4]; more than 8 µg/mL in assay [5]; 2 µg/mL (≈ 2.9 µM) in assay [6]. Besides, the figures for the MIC50 in assay [7] and in assay [8] were more than 8 µg/mL and 0.5 µg/mL (≈ 0.724 µM), respectively. Also, the MIC80 in assay [3] worked out at 0.5 µg/mL (≈ 0.724 µM).

Take `O=C(c1ccc(OCC(O)(Cn2cncn2)c2ccc(F)cc2F)cc1)C1OC1c1ccc(Cl)cc1Cl` (stereo not drawn) [Compound 1B-2, (3-(2,4-dichlorophenyl)oxiran-2-yl) (4-(2-(2,4-difluorophenyl)-2-hydroxy-3-(1H-1,2,4-triazol-1-yl)propoxy)phenyl)methanone]: the MIC50 in assay [1] was 0.5 µg/mL (≈ 0.915 µM); in assay [2], 1 µg/mL (≈ 1.83 µM); in assay [3] it was 0.5 µg/mL (≈ 0.915 µM); in assay [4] it was more than 4 µg/mL; in assay [5], more than 4 µg/mL; in assay [6], 4 µg/mL (≈ 7.32 µM). Besides, the values for the MIC50 in assay [7] and in assay [8] were more than 4 µg/mL and 1 µg/mL (≈ 1.83 µM), respectively. Besides, the MIC80 in assay [3] was 0.5 µg/mL (≈ 0.915 µM).

As for `OC(/C=C/c1ccc(Cl)cc1Cl)c1ccc(OCC(O)(Cn2cncn2)c2ccc(F)cc2F)cc1` (stereo not drawn) [Compound 1C-1, (E)-3-(2,4-dichlorophenyl)-1-(4-(2-(2,4-difluorophenyl)-2-hydroxy-3-(1H-1,2,4-triazol-1-yl)propoxy)phenyl)prop-2-en-1-ol], the MIC50 was 0.25 µg/mL (≈ 0.47 µM) in assay [1]; 1 µg/mL (≈ 1.88 µM) in assay [2]; 0.5 µg/mL (≈ 0.939 µM) in assay [3]; more than 4 µg/mL in assay [4]; more than 4 µg/mL in assay [5]; 4 µg/mL (≈ 7.51 µM) in assay [6]. Further, the MIC50 in assay [7] was more than 4 µg/mL; in assay [8], 0.5 µg/mL (≈ 0.939 µM). Moreover, the MIC80 in assay [3] is 0.5 µg/mL (≈ 0.939 µM).

As to `OC(COc1ccc(-c2cc(-c3ccc(Cl)cc3Cl)[nH]n2)cc1)(Cn1cncn1)c1ccc(F)cc1F` (stereo not drawn) [Compound 1D-1, 1-(4-(5-(2,4-dichlorophenyl)-1H-pyrazol-3-yl)phenoxy)-2-(2,4-difluorophenyl)-3-(1H-1,2,4-triazol-1-yl)propan-2-ol], the MIC50 in assay [1] was 1 µg/mL (≈ 1.84 µM); in assay [2] it was 0.5 µg/mL (≈ 0.922 µM); in assay [3] it was 0.5 µg/mL (≈ 0.922 µM); in assay [4], more than 4 µg/mL; in assay [5], more than 4 µg/mL; in assay [6], 2 µg/mL (≈ 3.69 µM). For the same compound, the MIC50 was more than 4 µg/mL in assay [7] and 1 µg/mL (≈ 1.84 µM) in assay [8]. In addition, in assay [3], the MIC80 worked out at 0.5 µg/mL (≈ 0.922 µM).

Regarding `OC(COc1ccc(C2=NNC(c3ccc(Cl)cc3Cl)C2)cc1)(Cn1cncn1)c1ccc(F)cc1F` (stereo not drawn) [Compound 1E-1, 1-(4-(5-(2,4-dichlorophenyl)-4,5-dihydro-1H-pyrazol-3-yl)phenoxy)-2-(2,4-difluorophenyl)-3-(1H-1,2,4-triazol-1-yl)propan-2-ol], the MIC50 was 2 µg/mL (≈ 3.67 µM) in assay [1]; 1 µg/mL (≈ 1.84 µM) in assay [2]; 0.25 µg/mL (≈ 0.459 µM) in assay [3]; more than 8 µg/mL in assay [4]; more than 8 µg/mL in assay [5]; more than 8 µg/mL in assay [6]. Further, the MIC50 was more than 8 µg/mL in assay [7] and 2 µg/mL (≈ 3.67 µM) in assay [8]. Further, the MIC80 in assay [3] was 0.25 µg/mL (≈ 0.459 µM).

As to `OC(Cn1cncn1)(Cn1cncn1)c1ccc(F)cc1F` [FLU, fluconazole], the MIC50 in assay [1] was 1 µg/mL (≈ 3.27 µM); in assay [2], 1 µg/mL (≈ 3.27 µM); in assay [3], 0.25 µg/mL (≈ 0.816 µM); in assay [4], more than 128 µg/mL; in assay [5], more than 128 µg/mL; in assay [6], 32 µg/mL (≈ 104 µM). Also, the MIC50 is more than 128 µg/mL in assay [7] and 2 µg/mL (≈ 6.53 µM) in assay [8]. Also, the MIC80 in assay [3] worked out at 1 µg/mL (≈ 3.27 µM).
